Patent publication US8343985B2, “Methods for modulating Lyn kinase activity and treating related disorders” (Melior Pharmaceuticals I, Inc., priority 2005, dated 2013)
Entries after “also recorded” stand apart in the source; their conditions may differ. One block for each molecule: values may come before it.

Key:
Db/Db mice [1] = assay: In vivo Db/Db mouse obesity study; conditions: chronic administration to mice
Lyn Kinase enzyme = Lyn Kinase enzyme (Homo sapiens, UniProt P07948); assay: In vitro Lyn kinase enzyme activity; format: biochemical; conditions: FIG. 12
Lyn Kinase enzyme, sequence (P07948 whole entry): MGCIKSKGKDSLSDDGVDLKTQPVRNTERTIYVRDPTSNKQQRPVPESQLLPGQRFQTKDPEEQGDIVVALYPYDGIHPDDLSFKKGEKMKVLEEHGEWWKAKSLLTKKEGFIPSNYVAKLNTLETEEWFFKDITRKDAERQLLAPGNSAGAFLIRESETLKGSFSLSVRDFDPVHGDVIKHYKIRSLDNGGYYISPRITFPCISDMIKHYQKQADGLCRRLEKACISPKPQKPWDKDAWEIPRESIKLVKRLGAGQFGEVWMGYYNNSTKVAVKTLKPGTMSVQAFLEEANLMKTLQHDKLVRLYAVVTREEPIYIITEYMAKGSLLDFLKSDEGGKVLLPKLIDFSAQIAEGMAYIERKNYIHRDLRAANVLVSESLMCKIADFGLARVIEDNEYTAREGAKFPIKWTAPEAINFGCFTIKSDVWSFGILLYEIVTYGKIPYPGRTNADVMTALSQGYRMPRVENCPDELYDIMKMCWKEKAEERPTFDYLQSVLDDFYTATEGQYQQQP

leptin = assay: Leptin levels in Western diet treated animals (ELISA); format: in vivo; conditions: Western diet mice
Description: Blood from mice that were on western diet (Compound 102) were analyzed for leptin levels. Mice were bled by retroorbital eyebleed on days 7, 14, 21 and 28 after the initiation of the study. On day of REB mice were dosed once with full dose 1 hr prior to bleed. Leptin levels were determined by ELISA (R&D Systems) as per directions. Data are expressed as the average ±SEM. Data were averaged and analyzed by ANOVA followed by a post-hoc Tukey's test with a p value of less then 0.05 indicating a statistical difference.

[2] = tested on: mouse model of hyperglycemia; assay: Oral glucose tolerance test in mice (mouse model of hyperglycemia); format: in vivo; conditions: for blood glucose levels / blood glucose load in mouse model of type II diabetes: mice administered high levels of glucose
From the text: Type II diabetes is characterized by high blood glucose levels in the presence of normal amounts of insulin. Animal models of type II diabetes involve administering high levels of glucose and measuring blood glucose levels and the ability of the experimental animal to maintain glucose homeostasis over time. Several pharmacological structural classes can effectively regulate this hyperglycemic response including sulfonylureas, thiazoladinediones (PPARγ agonists; glitazones) or metformin (glucophage). These drug classes are also clinically approved for use in humans. In the current study, we established a mouse model of hyperglycemia by administering high levels of glucose to mice.
Glucose was formulated in water at a concentration of 150 mg/ml and dosed at a volume of 10 ml/kg to produce a dose of 1.5 g/kg. Glucose was measured using the Ascensia II Elite XL glucose monitor (Bayer). Measure glucose by taking a small (2 mm) section off the tip of the tail, bleed onto glucose test strip and measure. Data for each time point analyzed by ANOVA and post-hoc Tukey's test. A p value of less then 0.05 was used to indicate statistical significance.
In study 1, mice were dosed with Compound 102 and glucose as follows:
In study 2, mice were dosed with Compound 102 and glucose as follows.
Study 3 tested Compound 102 and was conducted as follows: […]

[3] = tested on: Male CD1/ICR mice fed Western Diet; assay: Western diet study: weight gain, food intake, fat pad weights; format: in vivo
From the text: Male CD1/ICR mice were obtained from Harlan. The study was started when mice were 8 weeks of age. Prior to initiation of the study mice fasted for 24 hrs. Mice were fed “Western Diet” that was designed to approximate the “typical” human diet of North America and Europe (Research Diets; New Brunswick, N.J.; Western Diet composition). The Western Diet contained greater then 5 times more fat then normal chow. [table] Mice were weighed daily beginning from the start of the 24 hr fasting period. Food intake was monitored continuously. Mice were bled by retroorbital eyebleed on days 7, 14, 21 and 28 after the initiation of the study. On day of REB mice were dosed 1× with full dose 1 hr prior to bleed. Fat pads were dissected at the end of the study (day 31) weighed and frozen. The following fat pads were dissected: brown, inguinal, axial, mesenteric, renal and epidydimal. Data were averaged and analyzed by ANOVA followed by a post-hoc Tukey's test with a p value of less then 0.05 indicating a statistical difference.

Db/Db mice [4] = assay: In vivo Db/Db mouse obesity study
Description: (§1) Db/Db and Db/lean mice were obtained from Harlan at 6 weeks of age. Mice were housed 3 per cage and fed ad libitum normal rodent chow. Mice were kept on a 12 hr Light:dark cycle.
(§2) The study was initiated when mice reached an age of 8 weeks and their baseline blood glucose levels were greater than 200 mg/dl. Compound 102 was formulated in PBS: 2N HCl (99:1) at concentrations of 0.5, 1.5 and 5 mg/ml. Mice were dosed at volumes of 10 ml/kg to produce doses of 5, 15 and 50 mg/kg/dose. Mice were dosed twice per day at an 8 hr interval (8 am and 4 pm) during the light cycle.
Mice were administered vehicle or drug (i.e., Compound 102) (5, 15, and 50 mg/kg) twice per day (bid) for the 28 days. Mouse weight and food intake were monitored daily. Food intake is reported as food intake (grams) per mouse per 24 hr period.

Db/Db mice [5] = assay: In vivo Db/Db mouse glucose study
Description: as §1, §2
For the acute blood glucose measurements, blood glucose levels were measured after the animals received their first dose of Compound 102. Blood glucose levels were measured two hrs after this initial injection.

Zucker rats = assay: In vivo Zucker rat glucose study; conditions: 30 mg/kg ip, glucose 1.5 g/kg, 30 and 270 minutes
Description: Zucker rats and corresponding lean rats were supplied by Harlan. Rats were fed a normal diet, ad libitum, and kept on a 12 hr light/dark cycle. Rats were housed 3 per cage. At 12 weeks of age, Zucker rats were administered Compound 102 at a concentration of 30 mg/kg (ip). Blood glucose levels were measured 30 minutes after administration. Forty-five minutes after drug administration, animals were administered a glucose solution (1.5 g/kg) by oral gavage. Blood glucose levels were measured every 30 minutes after gavage for 4.5 hrs. There were 3 groups with 3 animals per group: 1) 3 Zucker leans (no drug; no glucose treatment); 2) Zucker vehicle treated group (glucose challenged and 3) Zucker Compound 102 treatment (30 mg/kg); glucose challenged.

[6] = single dose of 2 or 10 mg/kg, FIG. 3

- in vitro activity of Lyn Kinase enzyme (Lyn Kinase enzyme): increased in vitro activity
- defecation (Db/Db mice [4]; chronic administration to mice): defecated normally
- hyperactivity (as with amphetamine class of weight-loss drugs) (Db/Db mice [4]; mouse, in vivo): did not display the hyperactivity
SMILES: Cc1cccc(Oc2cnc(=O)[nH]c2)c1 [Compound 102]
- weight-gain response of animals fed a high fat diet (Db/Db mice [1]): significantly inhibited
- blood leptin levels (leptin): reduced leptin levels to those fed a normal diet
- blood glucose levels / blood glucose load in mouse model of type II diabetes [2]: effective in reducing blood glucose levels
- time after drug administration at which significance was lost ([2]; study 1, single administration, 30 mg/kg): 90 min
- normal blood glucose levels (pre-glucose loading) ([2]; study 1, single administration, 30 mg/kg, mice): significantly decreased
- blood glucose levels produced by oral glucose administration ([2]; study 1, single administration, 30 mg/kg, oral glucose 1.5 g/kg): significantly attenuated
- effect on blood glucose levels ([2]; study 2, increased dosing (four times at 30 minute intervals)): more dramatic effect
- food intake [3]: not affected
- brown, axial, inguinal, renal and epididymal fat pad increases ([3]; day 31): significantly reduced
- weight gain ([3]; highest dose tested (30 mg/kg/day)): significantly reduced; also recorded: significant alteration in weight change
- animal weight gain, dose dependence (Db/Db mice [4]; Db/Db mice, IP twice/day, four weeks): dose dependent effect
- food intake (Db/Db mice [4]; Db/Db mice, bid, 28 days): without affecting food intake
- weight gain (Db/Db mice [4]; Db/Db mice, bid, 28 days): significantly lowered; also recorded: reduction in weight gain
- food intake compared to vehicle-treated animals (Db/Db mice [4]; chronic administration to mice): normal food intake
- acute blood glucose response upon study initiation and on weekly testing (Db/Db mice [5]; 15 mg/kg and 50 mg/kg dose groups): acute dose response
- blood glucose levels following acute administration (Db/Db mice [5]; 2 hrs after first dose): reduce blood glucose levels; also recorded: reduction in glucose levels
- blood glucose levels, dose dependence (Db/Db mice [5]; IP twice/day, four weeks): dose dependent effect
- blood glucose levels after oral glucose challenge (Zucker rats): reduced blood glucose levels at both time points; also recorded: reduction is blood glucose levels

SMILES: O=c1ncc(Oc2cccc(Cl)c2)c[nH]1 [Compound 105]
- blood glucose levels / blood glucose load in mouse model of type II diabetes [2]: effective in reducing blood glucose levels
- baseline blood glucose levels [2, 6]: significantly depressed
- blood glucose levels at all time points after administration [2, 6]: significantly (P<0.05) reduced

SMILES: CN(C)C(=N)N=C(N)N [metformin, reference compound]
- blood glucose levels / blood glucose load in mouse model of type II diabetes [2]: can effectively reduce the blood glucose load
